What was measured:
Format in all cases: in vivo
[1] = test system: PDX mice each transplanted with the breast cancer tissue of one of six patients (A to F); experiment: Lapatinib drug efficacy (tumor volume) in breast cancer PDX mice, Example 1; conditions: 100 mg/kg i.v. twice a day, 42 times; for Tumor size (size at the start of administration is taken as 100%): 21 days after first administration
Procedure: To each of these PDX mice, 100 mg/kg of lapatinib (Trade name: Tykerb) was administered intravenously twice a day, for a total of 42 times. The measurement of the tumor volume was carried out before the administration and 21 days after the first administration. At the same time, a tissue section was collected from each mouse using a frozen needle, at each time point. The collected tissue sections were subjected to a formalin fixation treatment and a paraffin-embedding treatment, and then sliced to prepare sample slides, according to conventional methods. The thus prepared sample slides were used for the quantification of the expression level of HER2 as the target protein.

[2] = test system: PDX mice each transplanted with the breast cancer tissue of one of six patients (A to F); experiment: Lapatinib drug efficacy in PDX mice selected for low CD140a score, Example 4; conditions: three mice per group selected for low CD140a score; 100 mg/kg i.v. twice a day, 42 times; 21 days after first administration
Procedure: PDX mice each transplanted with the breast cancer tissue (volume: about 200 mm^3) of one of six patients (A to F), which were the same as those used in Example 1, were purchased, five mice for each of the patients. These PDX mice were reared, and the size of the tumor in each mouse was measured every 3 or 4 days. When the tumor volume reached 500 mm^3, tumor tissue was collected from each mouse using a scalpel.
The observation and image capture of the immunostained images and the stained images for morphological observation were carried out in the same manner as in Example 1, to measure the PID score or the DAB score of CD140a. […]
To each of the thus selected three PDX mice, in each group, 100 mg/kg of lapatinib (trade name: Tykerb) was administered intravenously twice a day, for a total of 42 times, in the same manner as in Example 1, and the tumor volume was measured before the first administration, and 21 days after the first administration. […] The collected tissue sections were used for the quantification of the expression level of HER2 protein as the target protein, in the same manner as in Example 1.

[3] = test system: hemato-lymphoid humanized model mice transplanted with tumor tissue of lung cancer patients; experiment: Nivolumab drug efficacy in hemato-lymphoid humanized model mice transplanted with lung cancer tissue, Example 5; conditions: 100 mg/kg i.v. twice a day, 42 times; 21 days after first administration
Description: Hemato-lymphoid humanized mice, produced by transplanting human hematopoietic stem cells into mice with acquired immune deficiency, were transplanted with tumor tissue, to prepare hemato-lymphoid humanized model mice, which are one type of patient-derived tumor-transplanted mice. Tumor tissues collected from six lung cancer patients were purchased from SofiaBio, and the thus produced hemato-lymphoid humanized mice were each subcutaneously transplanted with the tumor tissue, having a size of 2 mm square, of one of the patients (five mice transplanted with the tumor tissue of one patient were produced for each of the patients). To each of the model mice whose tumor tissue had grown to the size of about 300 mm^3 one month after the transplantation, 100 mg/kg of an anti-human PD-1 monoclonal antibody preparation, nivolumab (trade name: Opdivo) was administered intravenously twice a day, for a total of 42 times. In the same manner as in Example 1, the tumor volume was measured before the first administration and 21 days after the first administration. At the same time, a tissue section was collected from each of the mice, and sample slides were prepared in the same manner as in Example 1. […]

CS(=O)(=O)CCNCc1ccc(-c2ccc3ncnc(Nc4ccc(OCc5cccc(F)c5)c(Cl)c4)c3c2)o1 [Lapatinib, lapatinib]
Tumor size (size at the start of administration is taken as 100%) ([1]; Sample A (PID score 10, DAB score — before administration)): 180%
Tumor size (size at the start of administration is taken as 100%) ([1]; Sample B (PID score 30, DAB score 1+ before administration)): 120%
Tumor size (size at the start of administration is taken as 100%) ([1]; Sample C (PID score 100, DAB score 2+ before administration)): 80%
Tumor size (size at the start of administration is taken as 100%) ([1]; Sample D (PID score 200, DAB score 3+ before administration)): 70%
Tumor size (size at the start of administration is taken as 100%) ([1]; Sample E (PID score 400, DAB score 3+ before administration)): 60%
Tumor size (size at the start of administration is taken as 100%) ([1]; Sample F (PID score 800, DAB score 3+ before administration)): 10%
drug efficacy (effect of reducing the tumor size) in relation to PID score ([1]; among the PDX mice having the same DAB score of 3+): increased drug efficacy (effect of reducing the tumor size) of lapatinib tend to be observed in a PDX mouse having a higher PID score
drug efficacy (effect of reducing the tumor size) in relation to PID score of HER2 protein [2]: increased drug efficacy (effect of reducing the tumor size) of lapatinib tend to be observed in a PDX mouse having a higher PID score of HER2 protein

nivolumab
drug efficacy (effect of reducing the tumor size) in relation to PID score of PD-L1 protein [3]: increased drug efficacy (effect of reducing the tumor size) of nivolumab tend to be observed in a PDX mouse having a higher PID score of PD-L1 protein

— patent US20210311024A1, “NON-CLINICAL TEST METHOD CHARACTERIZED BY QUANTITATIVE EVALUATION OF EXPERIMENTAL ANIMAL SPECIMEN” (Konica Minolta, Inc., priority 2016, published 2021)
